This data set is described as follows: Single i.v. dose toxicity with 14-day observation: clinical signs and mortality. The class given is in vivo, Sprague-Dawley rats. Particulars: nicotine 0.75 mg/kg single i.v. The protocol:
Body weight and food consumption was measured daily for 14 days. On day 15, urine was collected on all surviving animals. The animals were euthanized and bled via cardiac puncture, and blood was collected for analysis. Tissues were collected, weighed, evaluated for gross abnormalities, and stored in 10% neutral-buffered formalin.
Four aliquots of each dose formulation were collected and stored at −80° C.
The animals were weighed prior to dosing and received a single i.v. dose via the lateral tail vein of either test compound or vehicle at a volume of 5 mL/kg.

Each structure is given as a SMILES string. “Also recorded” adds a separate entry of the source.

As for `CN1CCCC1c1cccnc1.O=C(O)C(O)C(O)C(=O)O` (single isomer, unassigned; (-)) [Nicotine, (−) Nicotine hydrogen tartrate, reference compound], the mortality entry (5 males and 5 females, tartrate) is “One male and two females died post dose; also recorded: one male animal and 2 females died following test compound administration”. The “clinical signs after dosing” value (male and female rats) is “experienced tremors upon compound administration but returned to normal within 15-20 minutes post dose”.
